Reference: BindingDB's records for patent US20240002391 (Biosplice Therapeutics, 2024)

Biological target: Dual specificity tyrosine-phosphorylation-regulated kinase 1A (Homo sapiens, UniProt Q13627)
Assay: DYRK1A kinase assay
Experimental: The mixture was allowed to incubate with the representative compounds for one hour at room temperature. All reactions were performed in duplicate. Unphosphorylated ( 0% Control ) and phosphorylated ( 100% control ) forms of Ser/Thr 18 served as control reactions. Additionally, an 11-point dose-response curve of Staurosporine (luM top) was run to serve as a positive compound control. After incubation, Development Reagent A was diluted in Development Buffer then added to the reaction and allowed to further incubate for one hour at room temperature.

COc1nc(N[C@H]2C[C@@](C)(N)C2)nn2ccc(-c3ccc4ncnn4c3)c12 [US20240002391, Compound 189]
EC50: 18.8 nM

COc1nc(N[C@H]2CC[C@@](C)(O)CC2)nn2ccc(-c3ccc4nnn(CCF)c4c3)c12 [US20240002391, Compound 658]
EC50: 4.5 nM

CCn1nnc2ccc(-c3ccn4nc(N[C@H]5CC[C@](C)(O)CC5)nc(OC)c34)cc21 [US20240002391, Compound 639]
EC50: 1.3 nM

COc1nc(N[C@H]2C[C@]3(CCN3CC(F)F)C2)nn2ccc(-c3ccc4nccnc4c3)c12 [US20240002391, Compound 1099]
EC50: 0.7 nM

COc1nc(N[C@H]2C[C@@](C)(NC(C)=O)C2)nn2ccc(-c3ccc4nnn(CCF)c4c3)c12 [US20240002391, Compound 653]
EC50: 1.3 nM

COc1nc(N[C@H]2C[C@@](C)(NC(=O)C3(C#N)CC3)C2)nn2ccc(-c3ccc4nnn(C)c4c3)c12 [US20240002391, Compound 625]
EC50: 0.9 nM

Cn1nnc2ccc(-c3ccn4nc(N[C@H]5CC[C@](C)(O)CC5)nc(OC5COC5)c34)cc21 [US20240002391, Compound 631]
EC50: 24.5 nM

COc1nc(N[C@H]2CC[C@](C)(O)CC2)nn2ccc(-c3ccc4nnn(CCF)c4c3)c12 [US20240002391, Compound 659]
EC50: 0.9 nM

COc1nc(N[C@H]2C[C@@](C)(O)C2)nn2ccc(-c3ccc4nccn4c3)c12 [US20240002391, Compound 43]
EC50: 1.3 nM

COc1nc(N[C@H]2CC[C@](C)(O)CC2)nn2cc(F)c(-c3ccc4nnn(C)c4c3)c12 [US20240002391, Compound 629]
EC50: 2.4 nM

COc1nc(N[C@H]2C[C@](C)(O)C2)nn2ccc(-c3ccc4nccn4c3)c12 [US20240002391, Compound 44]
EC50: 3.2 nM
